Reference: US12048695B2, “Immediate release pharmaceutical formulation of 4-[3-(4-cyclopropanecarbonyl-piperazine-1-carbonyl)-4-fluoro-benzyl]-2H-phthalazin-1-one” (KUDOS PHARMACEUTICALS LIMITED, priority 2008, dated 2024)
Converted amounts (≈) assume the structure as drawn. Read-outs that look alike come from different tables or passages of the source.

Columns and labels:
[1] = Solubility in water and pH buffered solutions; type: physicochemical
Protocol: The solubility of crystalline Form A of Compound 1 was measured in water and a range of pH buffered solutions representing the physiological pH range. The physical form of any undissolved (or precipitated) Compound 1 was not assessed by XRPD after solubility determination. The Form A crystalline form of Compound 1 is disclosed in WO2008/047082.

[2] = Solubility in real and simulated gastrointestinal media; type: physicochemical; conditions: thermodynamic from solid; for solubility thermodynamic at 24 hr: read-out: Equilibrium solubility, 24 hr
Protocol: The solubility of Compound 1 was also measured in real and simulated gastrointestinal media (Table 2).

[3] = Permeability across Caco-2 monolayers; type: in vitro ADME; conditions: human, Caco-2; for efflux ratio / Papp A→B / Papp B→A: marker compound, concentration not given
[4] = test system: Caco-2 monolayers; experiment: Permeability across Caco-2 monolayers; type: in vitro ADME
[5] = test system: P-gp; experiment: Permeability across Caco-2 monolayers; type: in vitro ADME; conditions: human, Caco-2, 10 μM
[6] = pKa; type: physicochemical; conditions: phthalazinone moiety
From the text: 4-[3-(4-cyclopropanecarbonyl-piperazine-1-carbonyl)-4-fluoro-benzyl]-2H-phthalazin-1-one (Compound 1) is a weakly acidic compound with a pKa of about 12.5 (phthalazinone moiety). It is essentially neutral across the physiological pH range.

[7] = In vitro dissolution of Compound 1 preparations (USP Apparatus I, TRIS buffer pH 7.2); type: physicochemical
Protocol: Dissolution was performed according to the general procedure of the United States Pharmacopeia Apparatus I (Basket). An amount of material containing approximately 100 mg of Compound 1 was weighed accurately then transferred to a dissolution vessel containing 500 mL of TRIS buffer (0.05M tris(hydroxymethyl)aminomethane solution adjusted to pH 7.2 with hydrochloric acid) maintained at 37° C. and stirred at 100 rpm. […] Compound 1 concentration in the filtrate was determined by ultraviolet spectroscopy at a wavelength of 278 nm.

In the case of `O=C(c1cc(Cc2n[nH]c(=O)c3ccccc23)ccc1F)N1CCN(C(=O)C2CC2)CC1` [Compound 1 (Form A), 4-[3-(4-cyclopropanecarbonyl-piperazine-1-carbonyl)-4-fluoro-benzyl]-2H-phthalazin-1-one], the solubility at 1 hr ([1]; aqueous buffer, thermodynamic from solid, 0.1M NaOH, pH 12.5) is reported as 650 µg/mL (≈ 1500 µM), the solubility at 24 hr ([1]; aqueous buffer, thermodynamic from solid, 0.1M NaOH, 24 hr, pH 12.4) is reported as 599 µg/mL (≈ 1380 µM) and the solubility at 1 hr ([1]; aqueous buffer, thermodynamic from solid, pH 3 Citrate Buffer, pH 2.9) is reported as 124 µg/mL (≈ 285 µM). The solubility at 24 hr ([1]; aqueous buffer, thermodynamic from solid, pH 3 Citrate Buffer, 24 hr, pH 2.9) was 112 µg/mL (≈ 258 µM), the solubility at 1 hr ([1]; aqueous buffer, thermodynamic from solid, pH 6.8 Phosphate Buffer, pH 6.9) was 111 µg/mL (≈ 255 µM) and the solubility at 24 hr ([1]; aqueous buffer, thermodynamic from solid, pH 6.8 Phosphate Buffer, 24 hr, pH 6.9) was 96 µg/mL (≈ 221 µM). For the same compound, the solubility at 1 hr ([1]; aqueous buffer, thermodynamic from solid, pH 9 Buffer, pH 8.9) was 116 µg/mL (≈ 267 µM), the solubility ([1]; pH 9 Buffer, 24 hr, pH 8.8) was 102 µg/mL (≈ 235 µM) and the solubility at 1 hr ([1]; simulated gastric fluid, thermodynamic from solid, 0.1M HCl, pH 1.2) was 128 µg/mL (≈ 295 µM). For the same compound, the solubility at 24 hr ([1]; simulated gastric fluid, thermodynamic from solid, 0.1M HCl, 24 hr, pH 1.2) was 114 µg/mL (≈ 262 µM), the solubility at 1 hr ([1]; thermodynamic from solid, Water, pH 5.6) was 124 µg/mL (≈ 285 µM) and the solubility at 24 hr ([1]; thermodynamic from solid, Water, 24 hr, pH 6.0) was 109 µg/mL (≈ 251 µM). The solubility thermodynamic at 24 hr ([2]; Fasted State Simulated Intestinal Fluid (FaSSIF), fassif) was 130 µg/mL (≈ 299 µM), the solubility thermodynamic at 24 hr ([2]; Fed State Simulated Intestinal Fluid (FeSSIF), fessif) was 200 µg/mL (≈ 460 µM) and the solubility thermodynamic at 24 hr ([2]; Simulated Gastric Fluid (SGF), simulated gastric fluid) was 120 µg/mL (≈ 276 µM). For the same compound, the solubility thermodynamic at 24 hr ([2]; human, Human Gastric Fluid (HGF), plasma or biological fluid) was 150 µg/mL (≈ 345 µM) and the solubility thermodynamic at 24 hr ([2]; human, Human Intestinal Fluid (HIF), plasma or biological fluid) was 170 µg/mL (≈ 391 µM).
In the case of `O=C(c1cc(Cc2n[nH]c(=O)c3ccccc23)ccc1F)N1CCN(C(=O)C2CC2)CC1` [Compound 1, 4-[3-(4-cyclopropanecarbonyl-piperazine-1-carbonyl)-4-fluoro-benzyl]-2H-phthalazin-1-one], the solubility thermodynamic ([1]; aqueous buffer, thermodynamic from solid, range of aqueous buffers (pH 1-9), read-out: aqueous equilibrium solubility) is reported as about 100 µg/mL (≈ 230 µM), the solubility ([2]; fed state simulated intestinal fluid, fessif, read-out: highest solubility) is reported as 200 µg/mL (≈ 460 µM) and the solubility at 24 hr ([2]; human, real and simulated gastrointestinal media, fassgf or other biorelevant) is reported as 120 to 200 µg/mL (≈ 276 to 460 µM). The Papp at 10 μM [3] was 3.67 ×10⁻⁶ cm/s, the efflux ratio at 260 μM ([3]; 260 μM) was 2.3 and the Papp A→B at 260 μM ([3]; 260 μM, n = 3, ±S.D.) was 7.75 ± 0.88 ×10⁻⁶ cm/s. The Papp B→A at 260 μM ([3]; 260 μM, n = 3, ±S.D.) was 17.8 ± 1.19 ×10⁻⁶ cm/s, the efflux ratio at 700 μM ([3]; 700 μM) was 1.8 and the Papp A→B at 700 μM ([3]; 700 μM, n = 3, ±S.D.) was 8.4 ± 0.41 ×10⁻⁶ cm/s. For the same compound, the Papp B→A at 700 μM ([3]; 700 μM, n = 3, ±S.D.) was 15.1 ± 1.42 ×10⁻⁶ cm/s, the “permeability” value ([4]; compared to the high permeability marker propranolol) was “moderately permeable” and the “human Peff” value ([4]; equated from Caco-2 Papp) was 140 ×10⁻⁶ cm/s. The “efflux by P-gp” value ([4]; low concentrations (10 μM), inhibited by Elacridar) was “propensity for efflux by P-gp”, the efflux ratio at 10 μM [5] was 6.5 and the Papp A→B at 10 μM ([5]; n = 3, ±S.D.) was 3.67 ± 0.34 ×10⁻⁶ cm/s. For the same compound, the Papp B→A at 10 μM ([5]; n = 3, ±S.D.) was 23.7 ± 2.84 ×10⁻⁶ cm/s and the pKa [6] was about 12.5.
`C[C@H]1O[C@@H](O[C@H]2[C@@H](O)C[C@H](O[C@H]3[C@@H](O)C[C@H](O[C@H]4CC[C@@]5(C)[C@H](CC[C@@H]6[C@@H]5C[C@@H](O)[C@]5(C)[C@@H](C7=CC(=O)OC7)CC[C@]65O)C4)O[C@@H]3C)O[C@@H]2C)C[C@H](O)[C@@H]1O` [Digoxin, digoxin, reference compound] gave an efflux ratio [3] of 9.1, a Papp A→B ([3]; n = 3, ±S.D.) of 1.34 ± 0.03 ×10⁻⁶ cm/s and a Papp B→A ([3]; n = 3, ±S.D.) of 12.2 ± 1.37 ×10⁻⁶ cm/s.
With `O=C(c1cc(Cc2n[nH]c(=O)c3ccccc23)ccc1F)N1CCN(C(=O)C2CC2)CC1` [Drug only] the “Dissolution (% Release)” value ([7]; 15 min) was 15%, the “Dissolution (% Release)” value ([7]; 30 min) was 28% and the “Dissolution (% Release)” value ([7]; 45 min) was 43%. For the same compound, the “Dissolution (% Release)” value ([7]; 60 min) was 51%, the “Dissolution (% Release)” value ([7]; 75 min) was 58% and the “Dissolution (% Release)” value ([7]; 90 min) was 62%. The “Dissolution (% Release)” value ([7]; 105 min) was 68% and the “Dissolution (% Release)” value ([7]; 120 min) was 71%.
Work on `CC(C)NCC(O)COc1cccc2ccccc12` (stereo not drawn) [Propranolol, propranolol, reference compound] yielded an efflux ratio [3] of 1.1, a Papp A→B ([3]; n = 3, ±S.D.) of 20 ± 2.57 ×10⁻⁶ cm/s and a Papp B→A ([3]; n = 3, ±S.D.) of 21.5 ± 0.33 ×10⁻⁶ cm/s.
